Measured values from US6632630B2, “Monooxygenase assays” (Aclara Biosciences, Inc., priority 2000, dated 2003).

Assay: Solubility in water
Format: physicochemical

solubility in water: very limited solubility
SMILES: O=c1ccc2nc3ccc(OCc4ccccc4)cc3oc-2c1 [7-BR, 7-benzyloxyresorufin]
